# Reference: patent US4629738A, “Non-classical topical treatment for glaucoma” (University of Iowa Research Foundation, priority 1984, dated 1986)
# “And” between values parts separate entries of the source, which are not always exact repeats. Equal entries are not always repeated. “Also recorded” adds a separate entry of the source.
# Key:
# [1] = system: intraocular pressure (IOP) of adult white rabbits; test: Salted Rabbit Test: IOP after topical 1% w/v suspension; assay type: in vivo; conditions: for IOP change, individual rabbit (Rabbit No. 1-6): 1% w/v suspension, 3 drops
# Method: In particular, an initial drop from the test formulation followed by two drops at one minute intervals are applied to one eye of each of six adult white rabbits that had been maintained ona diet containing 0.5% sodium. The treated eye was selected randomly, whereas, the fellow eye received placebo; the observer was masked. Results identified a small but significant reduction of intraocular pressure in the treated eye at 30, 60 and 120 minutes.
# One drop, followed by two drops each at one minute intervals, was applied to one eye of normal adult white rabbits. Six rabbits were used in the experiment. The treated eye was selected randomly, whereas, the fellow eye received placebo. The observer was masked. The intraocular pressure (IOP) was measured with a Digilab Pneumotonometer, initially and every ten minutes for 120 minutes following instillation of the anti-glaucoma agent. A drop of local anesthetic was applied just prior to making the measurement.
# carbonic anhydrase = test: in vitro carbonic anhydrase activity, simplified method of Maren; assay type: biochemical; parameters: averaged I50 (concentration of drug causing 50% inhibition of enzyme): unit not given here
# Method: Water was added to the reaction vessel which was kept in a water bath at 0±0.25° C. The reaction cell was constantly purged with CO2 at a rate of 200 to 250 ml/min. Each reagent was added at a specified time and in a specified order. […] The time required for the reaction begins with the addition of carbonate buffer and was completed with the indicator changed from red to yellow. […] Reaction time was the time for the uncatalyzed reaction time. […] By varying the time before adding the carbonate buffer and then determining the reaction time, the equilibration time can be accurately determined. The reaction time was averaged over three determinations. […] (If two enzyme units are added, then the concentration of drug yielding a reaction time corresponding to the activity of one unit is taken as the I50). An enzyme unit (e.u.) was calculated from: [formula]
structure (smiles),measurement,setting,value
"CNS(=O)(=O)c1nnc(NC(C)=O)s1 [methyl acetazolamide, N-methyl-2-acetylamino-1,3,4-thiadiazole-5-sulfonamide]","IOP change, individual rabbit (Rabbit No. 1-6)",[1]; 10 min,-4 mm Hg and -2 mm Hg and 0 mm Hg
same,"IOP change, individual rabbit (Rabbit No. 1-6)",[1]; 20 min,-2 mm Hg and 0 mm Hg and -4 mm Hg and -3 mm Hg and 1 mm Hg
same,"IOP change, individual rabbit (Rabbit No. 1-6)",[1]; 30 min,-3 mm Hg and -2 mm Hg and -1 mm Hg
same,"IOP change, individual rabbit (Rabbit No. 1-6)",[1]; 40 min,0 mm Hg and -1 mm Hg
same,"IOP change, individual rabbit (Rabbit No. 1-6)",[1]; 50 min,-5 mm Hg and -2 mm Hg and -1 mm Hg and 0 mm Hg
same,"IOP change, individual rabbit (Rabbit No. 1-6)",[1]; 60 min,-3 mm Hg and 1 mm Hg and -2 mm Hg and -1 mm Hg
same,"IOP change, individual rabbit (Rabbit No. 1-6)",[1]; 70 min,-4 mm Hg and -2 mm Hg and 0 mm Hg and 2 mm Hg
same,"IOP change, individual rabbit (Rabbit No. 1-6)",[1]; 80 min,-3 mm Hg and -4 mm Hg and 1 mm Hg and 0 mm Hg
same,"IOP change, individual rabbit (Rabbit No. 1-6)",[1]; 90 min,-2 mm Hg and 1 mm Hg and -1 mm Hg and -4 mm Hg and 0 mm Hg and 3 mm Hg
same,"IOP change, individual rabbit (Rabbit No. 1-6)",[1]; 100 min,-4 mm Hg and 0 mm Hg and -3 mm Hg and -2 mm Hg
same,"IOP change, individual rabbit (Rabbit No. 1-6)",[1]; 110 min,-2 mm Hg and 0 mm Hg and 1 mm Hg
same,"IOP change, individual rabbit (Rabbit No. 1-6)",[1]; 120 min,-3 mm Hg and 0 mm Hg and -1 mm Hg
same,"reduction of intraocular pressure after topical administration, in words","[1]; rabbit, eye drops",lowering of IOP was statistically significant at all time intervals; also recorded: able to reduce intraocular pressure
same,"in vitro carbonic anhydrase inhibition, in words",carbonic anhydrase,inactive in vitro
same,activity relative to acetazolamide (ratio of I50),carbonic anhydrase; 0.52/0.00914,1/60
same,averaged I50 (concentration of drug causing 50% inhibition of enzyme),"carbonic anhydrase; heparinized blood, 2 enzyme units, 0 C",0.520
